# Test results from patent US12310967B2, “Compositions and methods of treatment for neurological disorders comprising motor neuron diseases” (Gliapharm SA, priority 2017, dated 2025).
# Tests used:
# primary astrocytes [1] = assay: Extracellular lactate quantification; assay type: cell-based, mouse; conditions: Appendix I, secondary screening: extracellular lactate
# Description: Secretion of L-lactate was determined in the extracellular medium of 96-well plated astrocytes after 90 min stimulation (at 37° C., in 5% CO2/95% air conditions) with the drug of interest. The stimulation medium was composed of D5030 medium (completed with D-glucose 5 mM and 44 mM sodium bicarbonate) for 90 min in concentrations ranging from 0 to 100 μM.
# Briefly, 200 μl of a Glycine (Sigma)-Semicarbazide (Acros) 0.2M pH 10 buffer containing 3 mM NAD (Roche) and LDH 14 U/ml (Roche) was added to each well of a 96-well plate containing 30 μl aliquots complemented with 20 μl fresh complete D5030 medium. Samples were incubated at 37° C. for 1 h. After samples cooled down at room temperature, the fluorescence intensity (340 nm excitation/450 nm emission) that represents the amount of NADH produced was measured, and lactate concentration values were determined from a standard curve of L-lactate.
# Statistical analysis consisted in ANOVA followed by Fisher LSD post-hoc test for pair-wise comparisons.
# Levels of lactate secreted by astrocytes were measured in the extracellular medium at 90 min after stimulation with hits (molecules) from the CDC54K library.
# primary astrocytes [2] = assay: High throughput screening (HTS) for lactate secretion: acidification of extracellular medium (SNARF5); assay type: cell-based, mouse; set-up: key to Score / HTS Score (SNARF5) / Score_SNARF: fraction of plate positive-control activity (1 = 100%); conditions: Appendix I, primary screening confirmation (SNARF5)
# Description: Primary cultures of cerebrocortical astrocytes were obtained from 1-2-day-old OF1 mouse pups (Charles River Laboratories). Briefly, cortices were isolated and minced in small pieces under a dissecting microscope. The cells were incubated for 30 min at 37° C. in a solution containing 20 U/ml of papain enzyme (Worthington Biochemical), L-cysteine 1 mM (Sigma), and 10 kU/ml DNase I (Worthington Biochemical) for an enzymatic dissociation. Papain activity was stopped by the addition of fetal calf serum (FCS) to the solution, and a single-cell suspension was then obtained by mechanical dissociation, which consisted in cells trituration in a DMEM (D7777, Sigma-Aldrich) medium (supplemented with 44 mm NaHCO3, and 10 ml/L antibiotic/antimycotic solution) containing 10% FCS. The cells were seeded at an average density of 6×10^4 cells/cm^2 in poly-D-lysine-coated 96, 12 or 6-well culture plates, depending on their use, and incubated at 37° C. in a humidified atmosphere containing 5% CO2/95% air. Culture medium was renewed twice per week. Cells were stimulated and harvested between DIV14 and DIV17, when confluence and cell growth were optimal.
# Secretion of lactate in a high-throughput screening (HTS) fashion was measured indirectly through the acidification of extracellular medium. To this end, primary astrocytes grown in 96-well plates for 17 days were stimulated with the compounds as listed herein.
# After washing the cells twice with stimulation medium (DMEM (D5030, Sigma), 3 mM NaHCO3 and 5 mM Glucose) at 37° C., cells were stimulated with the compounds at a final concentration of 10 uM (1% DMSO final) in 50 ul per well of stimulation medium supplemented with 10 uM of the extracellular pH sensor SNARF-5F %-(AND-6)-CAR (Life Technologies Corporation). Each compound was tested in two different plates for duplicates.
# After 90 min stimulation, fluorescence was read at exc. (excitation) 480 nm/emm. (emission) 580 nm and at exc 480 nm/emm. 630 nm. The ratio of fluorescence between 630 nm and 580 emission values, which represents extracellular pH, was calculated.
# In each plate, 8 wells were used for negative controls (DMSO) and 8 wells were used for positive controls (CCCP 2 uM in DMSO). Z prime values were calculated for each of the plates tested and values<0 were discarded.
# The average and SD of compounds' values tested in duplicates were calculated, and compound was noted as HIT when the difference between compound's average and negative control's average was greater than three times the sum of compound's SD and negative controls' SD. Only scores greater than 40% were considered as lead Hits for the CDC54K library; for the remaining libraries, all hits were considered. Scores are calculated as the % of activity compared to the positive control in each plate (which is 100%).
# Primary screening hits were cherry picked on new plates and confirmed for SNARF5 effect, after having discarded those compounds that are fluorescent (exc. 480 nm/emm. 580 nm or 630 nm) before stimulation. Extracellular medium was next analyzed for extracellular lactate quantification for secondary screening.
# Identification of lactate-enhancing drugs with high throughput screening (HTS) experiments on astrocytes primary cultures using extracellular pH dye (SNARF5F 5-(and-6)-carboxylic acid) for 90 min. The procedure is described in Material and Methods (2. Cell culture, 2.1. HTS for lactate secretion and 2.2. Extracellular lactate quantification).
# The procedure was performed as follows: • Primary screening: acidification of the extracellular medium • Primary screening confirmation: acidification of the extracellular medium, removal of compounds with fluorescent activity at exc. 480 nm/emm. 580 nm or 630 n. • Secondary screening: dosage of extracellular lactate
Structure (SMILES),Score_LACTATE (primary astrocytes [1]),Score_SNARF (primary astrocytes [2])
CN(C)Cc1cccc(CNc2ncnc3sccc23)c1 [T6783542],1.033,0.9183
Cc1ccc(CN2CCN(c3ncnc4c3CCC4)CC2)o1 [T636-1937],0.8045,0.473
Cc1cccc([N+]2=C3SCCCN3C(O)(c3ccc(Cl)cc3)C2)c1.[Br-] (centres unmarked) [F0522-0533],0,0.4705
Cc1oc2ncnc(N3CCCC(C(=O)NCc4cccnc4)C3)c2c1C (centres unmarked) [F228-0351],0.8985,0.82
Cc1cccc(NS(=O)(=O)c2cc(-c3ccnn3C)cs2)c1 [L924-0884],0.7362,0.7507
CCc1ccc(S(=O)(=O)N2CCSC2c2ccc(OC)c(OC)c2)cc1 (centres unmarked) [4052-4304],0.4335,0.4491
O=C(c1noc2ccc(S(=O)(=O)Nc3cccc(F)c3)cc12)N1CCCC1 [L995-0058],0.424,0.4197
COc1ccc(C2SCCN2S(=O)(=O)c2cccc(C)c2)cc1OC (centres unmarked) [T5463658],0.3773,0.4683
O=S(=O)(Nc1ccc(F)c(Cl)c1)c1ccc2ccccc2c1 [T5231424],0.5258,0.3707
CCn1nccc1-c1csc(S(=O)(=O)Nc2cc(C)ccc2C)c1 [L924-0988],0.6139,0.6652
COc1ccc(Cl)cc1S(=O)(=O)NCc1ccncc1 [F0376-0203],0,0
Cc1cc(S(=O)(=O)NCc2ccncc2)c(Cl)cc1Cl [T5581430],0,0.505
c1ccc2c(c1)CN(c1ncnc3sccc13)CCN2 [T6768300],0,0.3742
Cc1ccc(C)c([N+]2=C3CCCCN3C(O)(c3ccc(F)cc3)C2)c1 (centres unmarked) [K404-0697],0.6526,0.5123
CC(=O)c1cccc(NC(=O)C(C)Sc2ncnc3ccsc23)c1 (centres unmarked) [T5627721],0.9487,0.7385
COc1ccccc1[N+]1=C2CCCCCN2C(O)(c2ccc(F)cc2)C1.[Br-] (centres unmarked) [F0524-0611],1.547,0.5954
Fc1ccc(Nc2nc(N3CCOCC3)c3ccccc3n2)cc1 [T0508-5193],0,0.3052
COc1ccc(C2(O)C[N+](c3ccccc3C)=C3CCCCN32)cc1.[Br-] (centres unmarked) [F0524-0507],0,0.4491
O=C(c1ccc(Cl)s1)N1CCC(Nc2ncnc3c2CCC3)C1 (centres unmarked) [T636-2391],0.8854,0.8743

Structure (SMILES),Score_LACTATE (primary astrocytes [1]),Score_SNARF (primary astrocytes [2])
CCn1nccc1-c1csc(S(=O)(=O)Nc2ccccc2OC)c1 [L924-1088],0.9106,0.8835
O=S(=O)(NC1CCN(c2ncnc3c2CCC3)C1)c1ccccc1 (centres unmarked) [T636-1250],0.8982,0.8587
Cc1nc(-c2cccc(NS(=O)(=O)c3ccc(N4CCCC4=O)cc3)c2)cs1 [T5599698],0.7496,0.8856
COc1ccccc1Nc1nc(N2CCOCC2)c2ccccc2n1 [F3007-0009],0,0
CC(=O)N1CCCc2cc(S(=O)(=O)NCc3cccc(C(F)(F)F)c3)ccc21 [T6099519],0,0.3944
CC(=O)N1CCCc2cc(S(=O)(=O)NCc3ccccc3)ccc21 [G855-0210],0,0.3123
Cc1oc2ncnc(N3CCCC(C(=O)NCc4ccccn4)C3)c2c1C (centres unmarked) [F228-0350],1.023,1.011
O=S(=O)(NC1CCCC1)c1cc(-c2noc(C3CCC3)n2)cs1 [L287-1221],0.6602,0.5995
COc1ccccc1[N+]1=C2CCCCN2C(O)(c2ccc(F)cc2)C1.[Br-] (centres unmarked) [F0524-0338],1.585,0.634
Cc1cccc([N+]2=C3CCCCCN3C(O)(c3ccc(F)cc3)C2)c1 (centres unmarked) [K404-0910],0.6219,0.5878
O=C(Cc1cccc(F)c1)N1CCC(Nc2ncnc3c2CCC3)C1 (centres unmarked) [T636-2360],0.413,0
O=S(=O)(Nc1ccc2[nH]ncc2c1)c1ccc(C(F)(F)F)cc1 [T5653029],1.354,0.5642
Cc1nc(N2CCCC(C(=O)NCc3cccnc3)C2)c2c(C)c(C)oc2n1 (centres unmarked) [F228-0856],0,0
CC1c2ccsc2CCN1c1ncnc2sccc12 (centres unmarked) [T5630309],0.7,0.4816
CCc1ccc(C2(O)C[N+](c3ccccc3OC)=C3CCCCN32)cc1 (centres unmarked) [K404-0672],1.356,1.014
CCOc1ccc(C2(O)C[N+](c3ccccc3OC)=C3CCCCN32)cc1 (centres unmarked) [K404-0673],2.024,0.9751
Cc1cccc([N+]2=C3CCCCN3C(O)(c3ccc(F)cc3)C2)c1C (centres unmarked) [K404-0685],0.6821,0.6562
Cc1cccc(NS(=O)(=O)c2cc(-c3noc(C)n3)cs2)c1 [L287-0220],1.578,0.5829
